This note sets out measurements from patent US5010097A, “Novel compounds” (Beecham Pharmaceuticals, priority 1987, dated 1991).

In the experiment the target is T1, human collagenase (human lung fibroblast cell line WI-38) (Homo sapiens, UniProt P03956).
T1 construct: purified from culture supernatants from the human lung fibroblast cell line, WI-38; endogenous in cells; host or cells: WI-38 human lung fibroblasts (enzyme purified from culture supernatants)
T1 sequence (P03956 100-469): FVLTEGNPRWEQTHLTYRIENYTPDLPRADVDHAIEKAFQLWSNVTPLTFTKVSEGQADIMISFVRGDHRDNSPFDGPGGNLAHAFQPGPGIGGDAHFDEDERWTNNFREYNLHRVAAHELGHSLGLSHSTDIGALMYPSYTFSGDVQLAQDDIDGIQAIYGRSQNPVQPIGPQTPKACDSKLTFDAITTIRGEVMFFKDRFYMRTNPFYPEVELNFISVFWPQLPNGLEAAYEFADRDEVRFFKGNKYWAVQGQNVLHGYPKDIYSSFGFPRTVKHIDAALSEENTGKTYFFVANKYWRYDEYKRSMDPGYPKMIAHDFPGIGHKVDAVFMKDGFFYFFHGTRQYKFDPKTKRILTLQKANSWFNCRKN
Put plainly: Inhibition of Human Lung Fibroblast Collagenase (collagenase inhibitor assay, 14C-acetylated rat skin Type I collagen substrate). The experiment is classed as biochemical. On the procedure: The test is performed essentially as in Cawston and Barrett Anal. Biochem. 99, 340-345 (1979). Compounds for testing are dissolved in methanol and added to purified human collagenase purified from culture supernatants from the human lung fibroblast cell line, WI-38, diluted in a suitable aqueous buffer. After a 5 min pre-incubation at 37° C., the assay tubes are cooled to 4° and ^14 C-acetylated rat skin Type I collagen is added. The assay tubes are incubated at 37° C. overnight. The ^14 C-collagen forms insoluble fibrils which are the substrate for the enzyme.
To terminate the assay, the assay tubes are spun at 12000 rpm for 25 min. Undigested ^14 C-collagen remains as insoluble fibrils and is pelleted, while digested ^14 C-collagen remains as soluble peptides in the supernatant. A sample of the supernatant is taken for liquid scintillation counting.
The activity of collagenase inhibitors (IC50 : 50% inhibitory concentration) is expressed as the concentration of compound that inhibits a known (standard) concentration of enzyme by 50%, or as the % inhibition of the collagen degradation caused by the known (standard) concentration of enzyme, at a stated concentration of the compound.

Usually IC50 stands for the point on the concentration scale where inhibition reaches its midpoint. Read a high IC50 as a need for much substance. Regarding `CNC(=O)[C@H](Cc1ccc(OC)cc1)NC(=O)C(CC(C)C)C(S)CC(C)=O` (single isomer, unassigned) [2 A], inhibition (purified human collagenase from WI-38 culture supernatants, 14C-collagen fibrils, 5 min pre-incubation at 37 °C, then 37 °C overnight) was half-maximal at 14 nM (IC50).
As to `CNC(=O)[C@H](Cc1ccc(OC)cc1)NC(=O)C(CC(C)C)C(S)CC(C)=O` (some centres unmarked) [2 C/D], the “Inhibition (% inhibition of the collagen degradation)” value (at 1000 (column head nm), purified human collagenase from WI-38, 37 °C overnight) came to 58%.
